Data from PubChem BioAssay AID2060609 (Molecular Pharmacology Branch, DTP, NCI, 2025).
pIC50: −log10 of the molar value. “And” between values parts separate entries of the source, which are not always exact repeats. Equal entries are not always repeated.

Tested on: 855422-203-R-J1-PDC complex spheroids, viability
Assay: Anticancer human tumor 855422-203-R-J1-PDC patient-derived bladder carcinoma cell line growth inhibition [CLK]
Conditions: for viability, T/C: stronger effect = lower value
Outline: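 Multi-cell-type spheroids combined patient-derived tumor cells with HUVEC endothelial cells and human mesenchymal stem cells. Paired agents were dosed in half-log steps down from about clinical Cmax, or from 10 microM where Cmax was unknown.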

[1] = curve of first compound, second compound 0.0316 µM
[2] = curve of first compound, second compound 0.1 µM
[3] = curve of first compound, second compound 0.316 µM
[4] = curve of first compound, second compound 1 µM
[5] = curve of first compound, second compound 3.16 µM
[6] = curve of first compound, second compound 10 µM
[7] = second compound 0.0316 µM, first compound 0.0316 µM
[8] = second compound 0.0316 µM, first compound 0.1 µM
[9] = second compound 0.0316 µM, first compound 0.316 µM
[10] = second compound 0.0316 µM, first compound 1 µM
[11] = second compound 0.0316 µM, first compound 3.16 µM
[12] = second compound 0.0316 µM, first compound 10 µM
[13] = second compound 0.1 µM, first compound 0.0316 µM
[14] = second compound 0.1 µM, first compound 0.1 µM
[15] = second compound 0.1 µM, first compound 0.316 µM
[16] = second compound 0.1 µM, first compound 1 µM
[17] = second compound 0.1 µM, first compound 3.16 µM
[18] = second compound 0.1 µM, first compound 10 µM
[19] = second compound 0.316 µM, first compound 0.0316 µM
[20] = second compound 0.316 µM, first compound 0.1 µM
[21] = second compound 0.316 µM, first compound 0.316 µM
[22] = second compound 0.316 µM, first compound 1 µM
[23] = second compound 0.316 µM, first compound 3.16 µM
[24] = second compound 0.316 µM, first compound 10 µM
[25] = second compound 1 µM, first compound 0.0316 µM
[26] = second compound 1 µM, first compound 0.1 µM
[27] = second compound 1 µM, first compound 0.316 µM
[28] = second compound 1 µM, first compound 1 µM
[29] = second compound 1 µM, first compound 3.16 µM
[30] = second compound 1 µM, first compound 10 µM
[31] = second compound 3.16 µM, first compound 0.0316 µM
[32] = second compound 3.16 µM, first compound 0.1 µM
[33] = second compound 3.16 µM, first compound 0.316 µM
[34] = second compound 3.16 µM, first compound 1 µM
[35] = second compound 3.16 µM, first compound 3.16 µM
[36] = second compound 3.16 µM, first compound 10 µM
[37] = second compound 10 µM, first compound 0.0316 µM
[38] = second compound 10 µM, first compound 0.1 µM
[39] = second compound 10 µM, first compound 0.316 µM
[40] = second compound 10 µM, first compound 1 µM
[41] = second compound 10 µM, first compound 3.16 µM
[42] = second compound 10 µM, first compound 10 µM
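Note: spheroids exposed to drugs for seven days before readout.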
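Throughout, for viability, T/C: 100% = DMSO vehicle control wells.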

CC(Nc1ccc2c(c1)OCCn1cc(N3C(=O)OCC3C(F)F)nc1-2)C(N)=O (stereo not drawn) + CNC(=O)c1ccc(Nc2nc(OC3CCCC3)c3c(-c4ccc5nc(C)oc5c4)c[nH]c3n2)c(OC)c1
pIC50 [1]: 6.79
pIC50 [2]: 6.74
pIC50 [3]: > 7.50
pIC50 [4]: > 7.50
pIC50 [5]: > 7.50
pIC50 [6]: > 7.50
viability, T/C [7]: 80.5%
viability, T/C [8]: 59.6%
viability, T/C [9]: 36.1%
viability, T/C [10]: 26.3%
viability, T/C [11]: 19.7%
viability, T/C [12]: 11.1%
viability, T/C [13]: 61.9%
viability, T/C [14]: 58.6%
viability, T/C [15]: 42.6%
viability, T/C [16]: 27.5%
viability, T/C [17]: 19.7%
viability, T/C [18]: 12%
viability, T/C [19]: 15.8%
viability, T/C [20]: 15.3%
viability, T/C [21]: 13.8%
viability, T/C [22]: 13.4%
viability, T/C [23]: 9.9%
viability, T/C [24]: 6.79%
viability, T/C [25]: 16.9%
viability, T/C [26]: 16.6%
viability, T/C [27]: 11.4%
viability, T/C [28]: 9.1%
viability, T/C [29]: 8.21%
viability, T/C [30]: 4.44%
viability, T/C [31]: 21.2%
viability, T/C [32]: 15.8%
viability, T/C [33]: 9.09%
viability, T/C [34]: 9.68%
viability, T/C [35]: 8.52%
viability, T/C [36]: 5.74%
viability, T/C [37]: 15.8%
viability, T/C [38]: 12.1%
viability, T/C [39]: 10.3%
viability, T/C [40]: 10.3%
viability, T/C [41]: 7.09%
viability, T/C [42]: 3.99%

C=C(F)C(=O)N1CCN(c2nc(OCC3CCCN3C)nc3c2CCN(c2cccc4cccc(Cl)c24)C3)CC1CC#N (stereo not drawn) + CN1CCN(c2cc(C(=O)Nc3cc4cc(-c5cnn(C)c5)ccc4cn3)ccn2)CC1
pIC50 [1]: 5.61
pIC50 [2]: 5.70
pIC50 [3]: > 7.50
pIC50 [4]: > 7.50
pIC50 [5]: > 7.50
pIC50 [6]: > 7.50
viability, T/C [7]: 108%
viability, T/C [8]: 110%
viability, T/C [9]: 122%
viability, T/C [10]: 115%
viability, T/C [11]: 32%
viability, T/C [12]: 0.22%
viability, T/C [13]: 89.1%
viability, T/C [14]: 86%
viability, T/C [15]: 87.3%
viability, T/C [16]: 95.1%
viability, T/C [17]: 22.8%
viability, T/C [18]: 0.8%
viability, T/C [19]: 14.2%
viability, T/C [20]: 14.4%
viability, T/C [21]: 14.8%
viability, T/C [22]: 14.6%
viability, T/C [23]: 4.45%
viability, T/C [24]: 0.07%
viability, T/C [25]: 0.29%
viability, T/C [26]: 0.34%
viability, T/C [27]: 0.28%
viability, T/C [28]: 0.26%
viability, T/C [29]: 0.12%
viability, T/C [30]: 1.08%
viability, T/C [31]: 0.68%
viability, T/C [32]: 0.91%
viability, T/C [33]: 0.57%
viability, T/C [34]: 0.77%
viability, T/C [35]: 1.08%
viability, T/C [36]: 0.11%
viability, T/C [37]: 0.54%
viability, T/C [38]: 0.51%
viability, T/C [39]: 0.41%
viability, T/C [40]: 0.42%
viability, T/C [41]: 0.61%
viability, T/C [42]: 0.22%

CC1COCCN1c1cc(C2(S(C)(=N)=O)CC2)nc(-c2ccnc3[nH]ccc23)n1 (stereo not drawn)
viability, T/C (compound 0.0316 µM): 127% and 114%
viability, T/C (compound 0.1 µM): 108% and 101%
viability, T/C (compound 0.316 µM): 115% and 113%
viability, T/C (compound 1 µM): 93.2% and 103%
viability, T/C (compound 3.16 µM): 32.1% and 23.6%
viability, T/C (compound 10 µM): 11.2% and 8.31%
pIC50 (curve of compound): 5.65 and 5.67

CCN1CCN(Cc2ccc(Nc3ncc(F)c(-c4cc(F)c5nc(C)n(C(C)C)c5c4)n3)nc2)CC1 + CNC(=O)c1ccc(Nc2nc(OC3CCCC3)c3c(-c4ccc5nc(C)oc5c4)c[nH]c3n2)c(OC)c1
pIC50 [1]: < 6.00
pIC50 [2]: 8.19
pIC50 [3]: > 8.50
pIC50 [4]: > 8.50
pIC50 [5]: > 8.50
pIC50 [6]: > 8.50
viability, T/C (second compound 0.0316 µM, first compound 0.00316 µM): 88%
viability, T/C (second compound 0.0316 µM, first compound 0.01 µM): 90.2%
viability, T/C [7]: 74.8%
viability, T/C [8]: 56.8%
viability, T/C [9]: 56.4%
viability, T/C [10]: 46.2%
viability, T/C (second compound 0.1 µM, first compound 0.00316 µM): 59.3%
viability, T/C (second compound 0.1 µM, first compound 0.01 µM): 48%
viability, T/C [13]: 31.6%
viability, T/C [14]: 33.7%
viability, T/C [15]: 31.8%
viability, T/C [16]: 37.3%
viability, T/C (second compound 0.316 µM, first compound 0.00316 µM): 23.3%
viability, T/C (second compound 0.316 µM, first compound 0.01 µM): 27.7%
viability, T/C [19]: 25.9%
viability, T/C [20]: 20.9%
viability, T/C [21]: 28.7%
viability, T/C [22]: 30.9%
viability, T/C (second compound 1 µM, first compound 0.00316 µM): 19.8%
viability, T/C (second compound 1 µM, first compound 0.01 µM): 23.9%
viability, T/C [25]: 18%
viability, T/C [26]: 22.9%
viability, T/C [27]: 22.2%
viability, T/C [28]: 23.9%
viability, T/C (second compound 3.16 µM, first compound 0.00316 µM): 18.2%
viability, T/C (second compound 3.16 µM, first compound 0.01 µM): 23.4%
viability, T/C [31]: 19.8%
viability, T/C [32]: 18.6%
viability, T/C [33]: 26.9%
viability, T/C [34]: 22.7%
viability, T/C (second compound 10 µM, first compound 0.00316 µM): 18.2%
viability, T/C (second compound 10 µM, first compound 0.01 µM): 22.1%
viability, T/C [37]: 22.3%
viability, T/C [38]: 24%
viability, T/C [39]: 18.5%
viability, T/C [40]: 20%
